Laboratory results from patent US20230332232A1, “COMPOSITIONS AND METHODS FOR DIAGNOSING AND TREATING A DYSTONIA” (Duke University, priority 2020, published 2023).

Tested on: DYT1 knockin (Tor1a^delGAG/+) murine embryonic fibroblasts (MEFs)
Assay: microRNA-seq of EVs from DYT1 MEFs treated with drug, compared with non-treated DYT1 MEFs
Format: cell-based, mouse
Protocol: In addition to proteomic analysis, total RNA-seq and microRNA-seq was performed on RNA isolated in parallel from the EV samples of Cohort 2. As with the proteomic analysis, one biological replicate was prepared from 3 distinct biological clonal cell lines for each genotype. Here, EVs were isolated from conditioned cell culture media by 18 hour ultracentrifugation at 100,000 g. RNA was extracted using the Qiagen miRNeasy Micro Kit (Cat. No. 217084) according to the manufacturer's protocol. Two RNA fractions were extracted from each sample, one enriched in coding and non-coding RNA species>200 nt (“Total RNA” fraction) and one enriched for small RNAs<200 nt (“miRNA” fraction). RNA samples were then submitted to the Duke Sequencing and Genomic Technologies shared resource for further quality control and sequencing. Samples were assessed for concentration and integrity by Qubit and Fragment Analyzer. The miRNA fractions were 4.16 ng/μL-47.57 ng/μL and total RNA fractions were 3.8 ng/μL-43.6 ng/μL. The small RNA library was prepared using the QIAseq miRNA Library Kit (Cat No./ID: 331505) and sequenced on the Illumina NextSeq 500 High-Output platform with 75 bp single-reads. The total RNA library was prepared using the Illumina TruSeq Stranded Total RNA-seq Kit with Ribozero Gold ribosomal RNA reduction and sequenced on the Illumina NovaSeq 6000 S1 platform with 100 bp paired-end reads. Sequencer lane pooling and read depth are attached in the Excel data summary (See “RNA QC” Tab). Data processing and analysis were performed in collaboration with the Duke Genomic Analysis and Bioinformatics shared resource. RNA-seq data was processed using the TrimGalore toolkit (http://www.bioinformatics.babraham.ac.uk/projects/trim_galore), which employs Cutadapt(Martin M. (2011) EMBnet.journal. 17(1):10-12) to trim low quality bases and Illumina sequencing adapters from the 3' end of the reads. Only reads that were 20 nt or longer after trimming were kept for further analysis. Reads were mapped to the mouse genome and transcriptome ([…], et al. (2012) Nucleic Acids Res. 40(Database issue):[…]-97) using the STAR RNA-seq alignment tool (Dobin A, et al. (2013). Bioinformatics. 29(1):15-21). If the reads mapped to a single genomic location, then they were kept for subsequent analysis. Gene counts were compiled using the HTSeq tool (http://www-huber.embl.de/users/anders/HTSeq/). Only genes that had at least 10 reads in any given library were used in subsequent analysis. Normalization and differential expression was carried out using the DESeq26 Bioconductor (Huber W, et al. (2015) Nat Methods. 12(2):115-121) package with the R statistical programming environment (www.r-project.org). […] 694 miRNAs were initially examined with respect to QC, genotype, RTV effects, and ISRIB effects. This subset was the “Full miRNA” subset. FIG. 9A and FIG. 9B show the RTV effect on EV composition in DYT1 cells compared to WT cells for 279 miRNAs, respectively. […] Beginning with the 694 miRNAs in the “Full miRNA” subset, more than 60 molecules were detected in either WT cells or DYT1 cells (WT or Het UMI>60). […] The candidate miRNAs were ranked by the sum of genotype-dependent absolute Z-scores and RTV-induced absolute Z-scores (Abs Z Score Sum (Geno+RTV)). This subset was the “miRNA-Ritonavir Therapeutic Efficacy” subset and contained 201 miRNAs.

[1] = RTV-treated vs non-treated DYT1 (Het) MEF EVs
[2] = mmu-miR-34a-5p, EVs of DYT1 (Het) MEFs
[3] = mmu-miR-34c-5p, EVs of DYT1 (Het) MEFs
[4] = mmu-miR-96-5p, EVs of DYT1 (Het) MEFs
[5] = mmu-miR-125b-1-3p, EVs of DYT1 (Het) MEFs
[6] = mmu-miR-130b-3p, EVs of DYT1 (Het) MEFs
[7] = mmu-miR-140-3p, EVs of DYT1 (Het) MEFs
[8] = mmu-miR-148a-3p, EVs of DYT1 (Het) MEFs
[9] = mmu-miR-182-5p, EVs of DYT1 (Het) MEFs

CC(C)c1nc(CN(C)C(=O)N[C@H](C(=O)N[C@@H](Cc2ccccc2)C[C@H](O)[C@H](Cc2ccccc2)NC(=O)OCc2cncs2)C(C)C)cs1 [RTV, Ritonavir]
direction of modulated EV miRNA expression (DYT1 cells, miRNA-Ritonavir Therapeutic Efficacy subset, 201 miRNAs): modulated expression in a therapeutic direction
RTV Direction Opposite dE? (EV miRNA mmu−let−7c−5p (housekeeping)): yes
RTV Direction Opposite dE? (EV miRNA mmu−miR−22−3p): yes
RTV Direction Opposite dE? (EV miRNA mmu−miR−34a−5p): yes
RTV Direction Opposite dE? (EV miRNA mmu−miR−96−5p): yes
RTV Direction Opposite dE? (EV miRNA mmu−miR−135a−5p): yes
RTV Direction Opposite dE? (EV miRNA mmu−miR−182−5p): yes
RTV Direction Opposite dE? (EV miRNA mmu−miR−183−5p): yes
RTV Direction Opposite dE? (EV miRNA mmu−miR−199a−3p): yes
RTV Direction Opposite dE? (EV miRNA mmu−miR−296−3p): yes
RTV Direction Opposite dE? (EV miRNA mmu−miR−542−5p): yes
mmu-miR-147-5p: RTVvHet Z Score [1]: −0.07
mmu-miR-181a-1-3p: RTVvHet Z Score [1]: 0.08
mmu-miR-331-5p: RTVvHet Z Score [1]: 0.00
mmu-miR-668-3p: RTVvHet Z Score [1]: 0.31
mmu-miR-1930-5p: RTVvHet Z Score [1]: 0.00
mmu-miR-1943-5p: RTVvHet Z Score [1]: 0.23
mmu-miR-1955-5p: RTVvHet Z Score [1]: 0.00
mmu-miR-3072-5p: RTVvHet Z Score [1]: −0.38
mmu-miR-3076-3p: RTVvHet Z Score [1]: 0.00
mmu-miR-3088-3p: RTVvHet Z Score [1]: 0.18
mmu-miR-6936-3p: RTVvHet Z Score [1]: 0.00
mmu-miR-7224-3p: RTVvHet Z Score [1]: −0.17
mmu-miR-467d-3p: RTVvHet Z Score [1]: −0.11
RTVvHet Z Score (mmu-let-7a-1-3p): 0.62
RTVvHet Z Score (mmu-let-7c-2-3p): 0.62
RTV Direction Opposite dE? (mmu-let-7f-5p, EVs of DYT1 (Het) MEFs): yes
RTVvHet Z Score (mmu-let-7g-5p): 0.50
RTVvHet Z Score (mmu-let-7i-3p): 1.15
RTV Direction Opposite dE? (mmu-let-7i-5p, EVs of DYT1 (Het) MEFs): yes
RTV Direction Opposite dE? (mmu-miR-30e-5p, EVs of DYT1 (Het) MEFs): yes
RTVvHet Z Score (mmu-miR-30e-3p): 0.49
RTVvHet Z Score (mmu-miR-15a-5p): 0.22
RTVvHet Z Score (mmu-miR-16-5p): 0.21
RTVvHet Z Score (mmu-miR-17-3p): 0.02
RTV Direction Opposite dE? (mmu-miR-19b-3p, EVs of DYT1 (Het) MEFs): yes
RTVvHet Z Score (mmu-miR-22-3p): 1.26
RTV Direction Opposite dE? (mmu-miR-22-3p, EVs of DYT1 (Het) MEFs): yes
RTVvHet Z Score (mmu-miR-23a-3p): 0.46
RTVvHet Z Score (mmu-miR-25-3p): 0.71
RTV Direction Opposite dE? (mmu-miR-26b-Sp, EVs of DYT1 (Het) MEFs): yes
RTVvHet Z Score (mmu-miR-29b-3p): 0.53
RTVvHet Z Score (mmu-miR-29c-3p): 1.17
RTVvHet Z Score (mmu-miR-30a-5p): 0.97
RTV Direction Opposite dE? (mmu-miR-30a-5p, EVs of DYT1 (Het) MEFs): yes
RTVvHet Z Score (mmu-miR-30b-5p): 1.23
RTVvHet Z Score (mmu-miR-30c-5p (1st line so named)): 1.38
RTVvHet Z Score (mmu-miR-30c-5p (2nd line so named)): 1.07
RTV Direction Opposite dE? (mmu-miR-30c-5p, EVs of DYT1 (Het) MEFs): yes
RTVvHet Z Score (mmu-miR-31-3p): 0.83
RTVvHet Z Score (mmu-miR-31-5p): 1.41
RTV Direction Opposite dE? (mmu-miR-31-5p, EVs of DYT1 (Het) MEFs): yes
RTVvHet Z Score (mmu-miR-32-5p): 0.75
RTVvHet Z Score (mmu-miR-33-5p): 1.52
RTVvHet Z Score (mmu-miR-34a-5p): 1.38
Abs Z Score Sum (Geno + RTV) [2]: 3.80
RTV Direction Opposite dE? [2]: yes
RTVvHet Z Score (mmu-miR-34b-5p): 1.55
RTVvHet Z Score (mmu-miR-34c-3p): 0.78
RTVvHet Z Score (mmu-miR-34c-5p): 1.33
Abs Z Score Sum (Geno + RTV) [3]: 3.36
RTV Direction Opposite dE? [3]: yes
RTV Direction Opposite dE? (mmu-miR-93-5p, EVs of DYT1 (Het) MEFs): yes
RTVvHet Z Score (mmu-miR-96-5p): 3.10
Abs Z Score Sum (Geno + RTV) [4]: 5.01
RTV Direction Opposite dE? [4]: yes
RTVvHet Z Score (mmu-miR-98-5p): 0.42
RTVvHet Z Score (mmu-miR-99a-5p): 0.73
RTVvHet Z Score (mmu-miR-101b-3p): 0.52
RTV Direction Opposite dE? (mmu-miR-103-3p, EVs of DYT1 (Het) MEFs): yes
RTVvHet Z Score (mmu-miR-106b-3p): 0.15
RTVvHet Z Score (mmu-miR-106b-5p): 0.54
RTVvHet Z Score (mmu-miR-124-3p): −1.59
RTVvHet Z Score (mmu-miR-125b-1-3p): 1.02
Abs Z Score Sum (Geno + RTV) [5]: 3.85
RTV Direction Opposite dE? [5]: yes
RTVvHet Z Score (mmu-miR-130b-3p): 1.50
Abs Z Score Sum (Geno + RTV) [6]: 3.92
RTV Direction Opposite dE? [6]: yes
RTV Direction Opposite dE? (mmu-miR-135a-5p, EVs of DYT1 (Het) MEFs): yes
RTVvHet Z Score (mmu-miR-136-3p): 1.52
RTVvHet Z Score (mmu-miR-140-3p): 2.54
Abs Z Score Sum (Geno + RTV) [7]: 4.39
RTV Direction Opposite dE? [7]: yes
RTVvHet Z Score (mmu-miR-146a-5p): 0.10
RTVvHet Z Score (mmu-miR-148a-3p): 1.86
Abs Z Score Sum (Geno + RTV) [8]: 3.69
RTV Direction Opposite dE? [8]: yes
RTVvHet Z Score (mmu-miR-148b-3p): 0.58
RTVvHet Z Score (mmu-miR-149-5p): 0.33
RTVvHet Z Score (mmu-miR-151-5p): 0.32
RTVvHet Z Score (mmu-miR-152-3p): 0.76
RTVvHet Z Score (mmu-miR-181a-5p): 0.31
RTVvHet Z Score (mmu-miR-181b-5p): 0.54
RTVvHet Z Score (mmu-miR-181c-5p): 0.88
RTVvHet Z Score (mmu-miR-182-5p): 5.33
Abs Z Score Sum (Geno + RTV) [9]: 7.27
RTV Direction Opposite dE? [9]: yes
